Consider 32 molecules from patent publication US20230348369A1 (Cytokinetics, Inc., priority 2020, published 2023).

SMILES strings stand for the structures. Like-named read-outs stand apart in the source and are kept apart here.

The target of this test is human NAMPT (Homo sapiens, UniProt P43490). Nature of the test: Human recombinant enzyme assay (NMN fluorescence biochemical assay, activation of NAMPT). The gist of the method: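 NMN production is detected fluorometrically (Ex 355/Em 460 nm) 40 min after acetophenone, KOH and formic acid derivatization. Reactions ran 60 min at ambient temperature: 6 nM human NAMPT, nicotinamide 150 μM, PRPP 20 μM, ATP 2.5 mM, buffered at pH 7.2 with 50 mM HEPES plus DTT, CHAPS, NaCl and 100 mM MgCl2.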
human NAMPT, sequence (P43490 whole entry): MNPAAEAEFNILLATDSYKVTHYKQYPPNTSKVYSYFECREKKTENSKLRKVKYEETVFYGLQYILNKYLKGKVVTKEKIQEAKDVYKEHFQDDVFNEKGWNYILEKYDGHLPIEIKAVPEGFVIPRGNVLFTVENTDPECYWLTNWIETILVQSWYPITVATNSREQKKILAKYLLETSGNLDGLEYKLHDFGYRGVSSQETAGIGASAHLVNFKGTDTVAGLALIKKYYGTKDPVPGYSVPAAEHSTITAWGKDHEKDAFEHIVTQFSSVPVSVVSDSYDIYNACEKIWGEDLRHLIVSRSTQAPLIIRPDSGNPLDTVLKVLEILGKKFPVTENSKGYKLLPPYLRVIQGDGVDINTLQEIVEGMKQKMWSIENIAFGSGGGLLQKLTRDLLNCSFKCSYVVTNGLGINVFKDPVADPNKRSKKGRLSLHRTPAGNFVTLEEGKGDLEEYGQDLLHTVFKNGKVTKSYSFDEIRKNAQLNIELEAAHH

[1] abbreviates: Table A, human recombinant NAMPT, NMN formation, 60 min.
Setting [2] is: Table A, human recombinant NAMPT, NMN formation, 60 min, read-out: EC50 Human.

What is called EC50 is the concentration that produces a half-maximal response. On to `O=C(NCCCCC1CCN(C(=O)c2ccccc2C(F)F)CC1)NCc1ccc(Cl)cc1` [Compound 314, 1-(4-chlorobenzyl)-3-(4-(1-(2-(difluoromethyl)benzoyl)piperidin-4-yl)butyl)urea], for which the “AC1.4 Human” value under setting [1] came to 0.5 µM. For the same molecule, the EC50 under setting [2] came out at 0.7 µM.
Turning to `COc1ccc(CNC(=O)NC2CC3(C2)CN(C(=O)Cc2ccccc2C)C3)cc1` [Compound 42, 1-(4-methoxybenzyl)-3-(2-(2-(o-tolyl)acetyl)-2-azaspiro[3.3]heptan-6-yl)urea], the “AC1.4 Human” value under setting [1] stood at 10.7 µM. In addition, under setting [2], the EC50 is 42.2 µM.
Consider `COc1ccc(CNC(=O)NC2CC3(C2)CN(C(=O)CCc2ccccc2Cl)C3)cc1` [Compound 135, 1-(2-(3-(2-chlorophenyl)propanoyl)-2-azaspiro[3.3]heptan-6-yl)-3-(4-methoxybenzyl) urea], for which the EC50 worked out at 38.5 µM. In addition, the “AC1.4 Human” value under setting [1] was 3.7 µM.
Turning to `COC(=O)[C@H]1C[C@@]2(C[C@H](NC(=O)NCc3ccc(Cl)cc3)C2)C1` (single isomer, unassigned) [Compound 201, methyl 6-(3-(4-chlorobenzyl)ureido)spiro[3.3]heptane-2-carboxylate], the EC50 came to 22.2 µM. The “AC1.4 Human” value under setting [1] amounted to 6.7 µM.
For `Cc1cnccc1C(=O)NC1CC2(CC(NC(=O)NCc3ccc(Cl)cc3)C2)C1` (centres unmarked) [Compound 204, N-(6-(3-(4-chlorobenzyl)ureido)spiro[3.3]heptan-2-yl)-3-methylisonicotinamide], under setting [1], the “AC1.4 Human” value amounted to 13.6 µM. Besides, the EC50 under setting [2] stood at 26.8 µM.
The matching figures for `COc1ccc(CNC(=O)NC2CC3(C2)CC(C(=O)N2CCCC2c2ccncc2)C3)cc1` (centres unmarked) [Compound 58, 1-(4-methoxybenzyl)-3-(6-(2-(pyridin-4-yl)pyrrolidine-1-carbonyl)spiro[3.3]heptan-2-yl)urea]: 11.3 µM and 39.6 µM.
For the molecule `O=C(NCc1ccc(Cl)cc1)NC1CC2(CC(CNC(=O)C3CCOCC3)C2)C1` (centres unmarked) [Compound 250, N-((6-(3-(4-chlorobenzyl)ureido)spiro[3.3]heptan-2-yl)methyl)tetrahydro-2H-pyran-4-carboxamide], under setting [1], the “AC1.4 Human” value was determined as 1.8 µM. For the same molecule, under setting [2], the EC50 was 7.7 µM.
`COc1ccc(CNC(=O)NC2CC3(C2)CN(C(=O)c2ccc(OC)cc2)C3)cc1` [Compound 155, 1-(2-(4-methoxybenzoyl)-2-azaspiro[3.3]heptan-6-yl)-3-(4-methoxybenzyl)urea]: the “AC1.4 Human” value under setting [1] was 2.7 µM. The EC50 under setting [2] is 52.1 µM.
As for `COc1ccc(CNC(=O)NC2CC3(C2)CC(C(=O)N2CCCc4ccc(F)c(F)c42)C3)cc1` (centres unmarked) [Compound 102], under setting [1], the “AC1.4 Human” value is 8.0 µM. The EC50 under setting [2] came to 33.3 µM.
In the case of `CC(C)(C)OC(=O)NC1CC2(CC(NC(=O)NCc3cnco3)C2)C1` (centres unmarked) [Compound 11, tert-butyl (6-(3-(oxazol-5-ylmethyl)ureido)spiro[3.3]heptan-2-yl)carbamate], the “AC1.4 Human” value under setting [1] was found to be 11.5 µM.
As to `COc1ccc(CNC(=O)NC2CC3(C2)CC(C(=O)NCc2ccnc(OC(F)F)c2)C3)cc1` (centres unmarked) [Compound 88, N-((2-(difluoromethoxy)pyridin-4-yl)methyl)-6-(3-(4-methoxybenzyl)ureido)spiro[3.3]heptane-2-carboxamide], the “AC1.4 Human” value under setting [1] amounted to 16.3 µM. Under setting [2], the EC50 worked out at 48.8 µM.
Turning to `COc1ccc(CNC(=O)NC2CC3(C2)CC(C(=O)NC2CC(CO)c4ccccc42)C3)cc1` (centres unmarked) [Compound 93, N-(3-(hydroxymethyl)-2,3-dihydro-1H-inden-1-yl)-6-(3-(4-methoxybenzyl)ureido)spiro[3.3]heptane-2-carboxamide], the “AC1.4 Human” value under setting [1] worked out at 6.3 µM. The EC50 under setting [2] was 34.8 µM.
Consider `O=C(NCc1ccc(Cl)cc1)NC1CC2(C1)CC(NC(=O)c1ccncc1)C2` (centres unmarked) [Compound 185, N-(6-(3-(4-chlorobenzyl)ureido)spiro[3.3]heptan-2-yl)isonicotinamide], for which the “AC1.4 Human” value under setting [1] turned out to be 11.6 µM. Moreover, the EC50 under setting [2] came out at 22 µM.
With `COc1ccc(CNC(=O)NC2CC3(C2)CC(C(=O)N2CCN(Cc4ccccn4)CC2)C3)cc1` (centres unmarked) [Compound 125, 1-(4-methoxybenzyl)-3-(6-(4-(pyridin-2-ylmethyl)piperazine-1-carbonyl)spiro[3.3]heptan-2-yl)urea], under setting [1], the “AC1.4 Human” value came out at 7.9 µM. Also, the EC50 under setting [2] turned out to be 51.2 µM.
On to `NC(=O)c1ccc(CNC(=O)NC2CCN(C(=O)c3ccccc3)CC2)cc1` [Compound 13, 4-((3-(1-benzoylpiperidin-4-yl)ureido)methyl)benzamide], for which, under setting [1], the “AC1.4 Human” value came to 17.5 µM.
Turning to `CN(C(=O)CCCCCNC(=O)NCc1ccc(Cl)cc1)c1ccccc1F` [Compound 274, 6-(3-(4-chlorobenzyl)ureido)-N-(2-fluorophenyl)-N-methylhexanamide], the “AC1.4 Human” value under setting [1] came out at 1.9 µM. Also, the EC50 under setting [2] was determined as 0.3 µM.
As for `Cc1cc(C(=O)N2CC[C@]3(C2)C[C@@H](NC(=O)NCc2ccc(Cl)cc2)C3)ccn1` [Compound 160, 1-(4-chlorobenzyl)-3-((2r,4s)-6-(2-methylisonicotinoyl)-6-azaspiro[3.4]octan-2-yl)urea], the “AC1.4 Human” value under setting [1] came to 13.6 µM. For the same molecule, under setting [2], the EC50 was 42.6 µM.
In the case of `O=C(NCCCCC1CCN(C(=O)Cc2cn[nH]c2)CC1)NCc1ccc(Cl)cc1` [Compound 316, 1-(4-(1-(2-(1H-pyrazol-4-yl)acetyl)piperidin-4-yl)butyl)-3-(4-chlorobenzyl)urea], the “AC1.4 Human” value under setting [1] came out at 1.4 µM. Also, the EC50 under setting [2] is 6.4 µM.
For `COc1ccc(CNC(=O)NC2CC3(C2)CC(C(=O)NCc2ccc(C#N)cc2F)C3)cc1` (centres unmarked) [Compound 77, N-(4-cyano-2-fluorobenzyl)-6-(3-(4-methoxybenzyl)ureido)spiro[3.3]heptane-2-carboxamide], in that order: 7.2 µM and 35.1 µM.
For `NC(=O)c1ccc(CNC(=O)N[C@H]2C[C@H](C(=O)NCc3ccccc3)C2)cc1` [Compound 21, 4-((3-((1r,3r)-3-(benzylcarbamoyl)cyclobutyl)ureido)methyl)benzamide], in that order: 8.0 µM and 45 µM.
As for `CCc1cccc(C(=O)N2CC3(CC(NC(=O)NCc4ccc(OC)cc4)C3)C2)c1` [Compound 172, 1-(2-(3-ethylbenzoyl)-2-azaspiro[3.3]heptan-6-yl)-3-(4-methoxybenzyl)urea], the 50% effective concentration (EC50) was 22.9 µM. Further, under setting [1], the “AC1.4 Human” value was determined as 1.9 µM.
`Cc1cc(C(=O)NC2CC3(CC(NC(=O)NCc4ccc(Cl)cc4)C3)C2)ccn1` (centres unmarked) [Compound 186, N-(6-(3-(4-chlorobenzyl)ureido)spiro[3.3]heptan-2-yl)-2-methylisonicotinamide]: the “AC1.4 Human” value under setting [1] is 16.0 µM. Besides, under setting [2], the EC50 is 53.4 µM.
With `CC(C)(O)CN1CCN(C(=O)C2CC3(CC(NC(=O)NCc4ccc(F)cc4)C3)C2)CC1` (centres unmarked) [Compound 109, 1-(4-fluorobenzyl)-3-(6-(4-(2-hydroxy-2-methylpropyl)piperazine-1-carbonyl)spiro[3.3]heptan-2-yl)urea], the “AC1.4 Human” value under setting [1] came out at 3.5 µM. Moreover, the EC50 under setting [2] was 10.2 µM.
`O=C(NCc1ccc(Cl)cc1)NC1CC2(CC(Cc3ncccn3)C2)C1` (centres unmarked) [Compound 340, 1-(4-chlorobenzyl)-3-(6-(pyrimidin-2-ylmethyl)spiro[3.3]heptan-2-yl)urea]: the EC50 is 5.6 µM. The “AC1.4 Human” value under setting [1] was found to be 3.7 µM.
As for `Cc1ccccc1C(=O)NCCCCCNC(=O)NCc1ccc(Cl)cc1` [Compound 275, N-(5-(3-(4-chlorobenzyl)ureido)pentyl)-2-methylbenzamide], the “AC1.4 Human” value under setting [1] was 1.9 µM. Besides, the EC50 under setting [2] stood at 11.4 µM.
For `COc1ccc(CNC(=O)NC2CC3(C2)CN(C(=O)C(C)(C)c2ccccc2)C3)cc1` [Compound 142, 1-(4-methoxybenzyl)-3-(2-(2-methyl-2-phenylpropanoyl)-2-azaspiro[3.3]heptan-6-yl)urea], the “AC1.4 Human” value under setting [1] came to 1.8 µM. Besides, the EC50 under setting [2] is 33.3 µM.
For `Cc1ccc(C(=O)NCC2CC3(C2)CC(NC(=O)NCc2ccc(Cl)cc2)C3)cn1` (centres unmarked) [Compound 240, N-((6-(3-(4-chlorobenzyl)ureido)spiro[3.3]heptan-2-yl)methyl)-6-methylnicotinamide], in that order: 0.9 µM and 3 µM.
Consider `O=C(NCc1ccc(Cl)cc1)NC1CC2(CC(CN3CCC[C@@H]3c3cccnc3)C2)C1` (stereo partly drawn) [Compound 239, (R)-1-(4-chlorobenzyl)-3-(6-((2-(pyridin-3-yl)pyrrolidin-1-yl)methyl)spiro[3.3]heptan-2-yl)urea], for which, under setting [1], the “AC1.4 Human” value came out at 2.1 µM. Besides, the EC50 under setting [2] is 22.5 µM.
The matching figures for `COc1ccc(CNC(=O)NC2CC3(C2)CC(C(=O)N2CCN(C)CC2)C3)cc1` (centres unmarked) [Compound 230, 1-(4-methoxybenzyl)-3-(6-(4-methylpiperazine-1-carbonyl)spiro[3.3]heptan-2-yl)urea]: 1.8 µM and 30.9 µM.
Take `O=C(NCCCCC1CCN(C(=O)c2ccccc2-c2nnn[nH]2)CC1)NCc1ccc(Cl)cc1` [Compound 315, 1-(4-(1-(2-(1H-tetrazol-5-yl)benzoyl)piperidin-4-yl)butyl)-3-(4-chlorobenzyl)urea]: the “AC1.4 Human” value under setting [1] stood at 0.9 µM. Further, the EC50 under setting [2] was 2 µM.
The matching figures for `O=C(CCCCCNC(=O)NCc1ccc(Cl)cc1)NC1CCCCC1` [Compound 257, 6-(3-(4-chlorobenzyl)ureido)-N-cyclohexylhexanamide]: 2.7 µM and 17.9 µM.
The matching figures for `COc1ccc(CNC(=O)NC2CC3(C2)CC(C(=O)NCC(C)(C)c2ccncc2)C3)cc1` (centres unmarked) [Compound 80, 6-(3-(4-methoxybenzyl)ureido)-N-(2-methyl-2-(pyridin-4-yl)propyl)spiro[3.3]heptane-2-carboxamide]: 2.4 µM and 45.4 µM.
